Columns and labels:
LRRK2 wt = molecular target: T1, LRRK2 wt (Homo sapiens, UniProt Q5S007); assay: IC50 experiments, Invitrogen Adapta assay, LRRK2 wt; format: biochemical
T1 construct: purchased Invitrogen
Method: (§1) IC50 experiments were performed using Invitrogen™'s Adapta™ assay.

LRRK2 G2019S = molecular target: T2, LRRK2 G2019S (Homo sapiens, UniProt Q5S007, G2019S); assay: IC50 experiments, Invitrogen Adapta assay, LRRK2 G2019S; format: biochemical
T2 construct: purchased Invitrogen
Method: as §1

LRRK2 = assay: Cellular degradation of LRRK2, Western blot in MEFs; format: cell-based, Mouse; conditions: for degradation of LRRK2 (total level): Western blot, time course, 0 nM-1000 nM; for level of LRRK2 (degradation): after 48 hours (FIG. 18)
Method: (§2) Cell lines used: Mouse embryonic fibroblast (MEF) WT, LRRK2 homozygous knock-ins in MEFs [R1441C; VPS35N(D620N); G2019S].
(§3) Tested concentration of LRRK2 degraders: 0 nM, 10 nM, 30 nM, 100 nM, 300 nM, 1000 nM. Additional concentrations tested for inventive compound 3: 2 uM, 5 uM and 10 uM.
(§4) Complete growth medium: DMEM supplemented with: 10% Fetal Bovine Serum; 1% pen/strep; 1% L-Glutamine; 1% MEM Non-essential Amino Acid Solution; 1% sodium pyruvate.
(§5) Commercial and in-house purified antibodies: • (a) Mouse anti-LRRK2/Dardarin antibody from Antibodies, Inc. (Cat #75-253). • (b) Rabbit monoclonal antibodies for total LRRK2 (UDD3) and pS935-LRRK2 (UDD2) were purified at the University of Dundee (as described in Dzamko et al., PLoS One 7(6): e39132 (2012). • (c) Loading controls: anti-α-tubulin (Cell Signaling Technology #5174); anti-GAPDH (Santa Cruz Biotechnology Cat. #sc-32233) • (d) (p)Rab10 antibodies: rabbit anti-RAB10 (phospho T73) antibody [MJF-R21] (ab230261); mouse MJFF-total Rab10 monoclonal antibody were generated by nanoTools (www.nanotools.de); rabbit Rab10 total was from Cell Signaling Technology (Rab10 (D36C4) XP® Rabbit mAb #8127)
(§6) Treatment: WT MEF, R1441C, VPS35N and G2019S mutants' cells were plated at equal density into 6-well plates in a final volume of 3 mL of complete growth medium/well. Degraders were reconstituted in DMSO and used at 1:1000 in cells i.e. 3 μl/3 ml. Treatment began when cells were >60% confluent, starting from a 48-hour time point, followed by a 24-hour time point, a 6-hour time point and finally a 1-hour time point.
(§7) Cell lysis: Media were aspirated, plates were placed on ice and cells were washed with Dulbecco's phosphate-buffered saline (DPBS). Fifty microliters of an ice-cold lysis buffer containing 50 mM Tris-HCl, pH 7.5, 1% (v/v) Triton X-100, 1 mM ethylene glycol-bis(μ-aminoethyl ether)-N,N,N′,N′-tetraacetic acid (EGTA), 1 mM sodium orthovanadate, 50 mM NaF, 0.1% (v/v) 2-mercaptoethanol, 10 mM 2-glycerophosphate, 5 mM sodium pyrophosphate, 0.1 μg/ml microcystin-LR (Enzo Life Sciences), 270 mM sucrose and complete EDTA-free protease inhibitor cocktail (Sigma-Aldrich Cat #11836170001) was added per well. Lysates were centrifuged at 20,817 g (14,000 rpm) for 15 min at 4° C. and supernatants were used to determine protein concentration using Bradford assay (Pierce™ Coomassie (Bradford) Protein Assay Kit, Thermo Scientific™ Cat #23200) and for Western blot analysis.
(§8) Western blot analysis: Cell lysates were mixed with 4× SDS-PAGE sample buffer [50 mM Tris-HCl, pH 6.8, 2% (w/v) SDS, 10% (v/v) glycerol, 0.02% (w/v) Bromophenol Blue and 1% (v/v) 2-mercaptoethanol] to a final total protein concentration of 1 μg/μl and heated at 95° C. for 5 minutes. Twenty micrograms of samples were loaded onto NuPAGE™ 4-12% Bis-Tris gradient gels (Life Technologies) along with 3 μl of BIO-RAD protein marker (Precision Plus Protein™ All Blue Prestained Protein Standards #1610373 kDa), gels were run in duplicates at 110V for 2 hours and 30 minutes with the NuPAGE™ MOPS SDS running buffer (Life Technologies, Cat #NP0001-02). After electrophoresis, the separated proteins were transferred onto the nitrocellulose membrane (GE Healthcare, Amersham Protran 0.45 μm NC) at 90 V for 90 minutes. Transferred membranes were briefly stained with Ponceau S stain and divided into 3 strips, as described earlier in Fan et al., Biochem. J. 475:23-44 (2018). Briefly, upper strip was cut from the top of the membrane to 75 kDa, middle strip cut was between 75 kDa—30 kDa and bottom strip cut was from 30 kDa—to the bottom of the membrane. Membrane strips were blocked at room temperature with 5% (w/v) dried skimmed milk dissolved in TBS-T [20 mM Tris-HCl, pH 7.5, 150 mM NaCl and 0.1% (v/v) Tween® 20] for 1 hour, washed four times with ten minutes intervals in TBS-T and incubated with primary antibodies diluted in 5% BSA (bovine serum albumin) in TBS-T overnight at 4° C. […]

LRRK2 pS935 = assay: Inhibition of phosphorylation of S935, Western blot in MEFs; format: cell-based, Mouse; conditions: for inhibition of phosphorylation of S935: Western blot, time course, 0 nM-1000 nM
Method: as §2, §3, §4, §5, §6, §7, §8

Rab10 (phospho T73) = assay: Inhibition of phosphorylation of Rab10, Western blot in MEFs; format: cell-based, Mouse; conditions: for inhibition of phosphorylation of Rab10: Western blot, time course, 0 nM-1000 nM
Method: as §2, §3, §4, §5, §6, §7, §8

[1] = molecular target: T3, LRRK2 R1441C homozygous knock-in MEFs (Mus musculus, UniProt Q5S006, R1441C); assay: Cellular degradation of LRRK2 in R1441C homozygous cells, Western blot; format: cell-based; conditions: R1441C homozygous cells (FIG. 3B), time course, 0 nM-1000 nM
T3 construct: endogenous in cells; host or cells: LRRK2 R1441C homozygous knock-in MEFs
T3 sequence (Q5S006 whole entry R1441C): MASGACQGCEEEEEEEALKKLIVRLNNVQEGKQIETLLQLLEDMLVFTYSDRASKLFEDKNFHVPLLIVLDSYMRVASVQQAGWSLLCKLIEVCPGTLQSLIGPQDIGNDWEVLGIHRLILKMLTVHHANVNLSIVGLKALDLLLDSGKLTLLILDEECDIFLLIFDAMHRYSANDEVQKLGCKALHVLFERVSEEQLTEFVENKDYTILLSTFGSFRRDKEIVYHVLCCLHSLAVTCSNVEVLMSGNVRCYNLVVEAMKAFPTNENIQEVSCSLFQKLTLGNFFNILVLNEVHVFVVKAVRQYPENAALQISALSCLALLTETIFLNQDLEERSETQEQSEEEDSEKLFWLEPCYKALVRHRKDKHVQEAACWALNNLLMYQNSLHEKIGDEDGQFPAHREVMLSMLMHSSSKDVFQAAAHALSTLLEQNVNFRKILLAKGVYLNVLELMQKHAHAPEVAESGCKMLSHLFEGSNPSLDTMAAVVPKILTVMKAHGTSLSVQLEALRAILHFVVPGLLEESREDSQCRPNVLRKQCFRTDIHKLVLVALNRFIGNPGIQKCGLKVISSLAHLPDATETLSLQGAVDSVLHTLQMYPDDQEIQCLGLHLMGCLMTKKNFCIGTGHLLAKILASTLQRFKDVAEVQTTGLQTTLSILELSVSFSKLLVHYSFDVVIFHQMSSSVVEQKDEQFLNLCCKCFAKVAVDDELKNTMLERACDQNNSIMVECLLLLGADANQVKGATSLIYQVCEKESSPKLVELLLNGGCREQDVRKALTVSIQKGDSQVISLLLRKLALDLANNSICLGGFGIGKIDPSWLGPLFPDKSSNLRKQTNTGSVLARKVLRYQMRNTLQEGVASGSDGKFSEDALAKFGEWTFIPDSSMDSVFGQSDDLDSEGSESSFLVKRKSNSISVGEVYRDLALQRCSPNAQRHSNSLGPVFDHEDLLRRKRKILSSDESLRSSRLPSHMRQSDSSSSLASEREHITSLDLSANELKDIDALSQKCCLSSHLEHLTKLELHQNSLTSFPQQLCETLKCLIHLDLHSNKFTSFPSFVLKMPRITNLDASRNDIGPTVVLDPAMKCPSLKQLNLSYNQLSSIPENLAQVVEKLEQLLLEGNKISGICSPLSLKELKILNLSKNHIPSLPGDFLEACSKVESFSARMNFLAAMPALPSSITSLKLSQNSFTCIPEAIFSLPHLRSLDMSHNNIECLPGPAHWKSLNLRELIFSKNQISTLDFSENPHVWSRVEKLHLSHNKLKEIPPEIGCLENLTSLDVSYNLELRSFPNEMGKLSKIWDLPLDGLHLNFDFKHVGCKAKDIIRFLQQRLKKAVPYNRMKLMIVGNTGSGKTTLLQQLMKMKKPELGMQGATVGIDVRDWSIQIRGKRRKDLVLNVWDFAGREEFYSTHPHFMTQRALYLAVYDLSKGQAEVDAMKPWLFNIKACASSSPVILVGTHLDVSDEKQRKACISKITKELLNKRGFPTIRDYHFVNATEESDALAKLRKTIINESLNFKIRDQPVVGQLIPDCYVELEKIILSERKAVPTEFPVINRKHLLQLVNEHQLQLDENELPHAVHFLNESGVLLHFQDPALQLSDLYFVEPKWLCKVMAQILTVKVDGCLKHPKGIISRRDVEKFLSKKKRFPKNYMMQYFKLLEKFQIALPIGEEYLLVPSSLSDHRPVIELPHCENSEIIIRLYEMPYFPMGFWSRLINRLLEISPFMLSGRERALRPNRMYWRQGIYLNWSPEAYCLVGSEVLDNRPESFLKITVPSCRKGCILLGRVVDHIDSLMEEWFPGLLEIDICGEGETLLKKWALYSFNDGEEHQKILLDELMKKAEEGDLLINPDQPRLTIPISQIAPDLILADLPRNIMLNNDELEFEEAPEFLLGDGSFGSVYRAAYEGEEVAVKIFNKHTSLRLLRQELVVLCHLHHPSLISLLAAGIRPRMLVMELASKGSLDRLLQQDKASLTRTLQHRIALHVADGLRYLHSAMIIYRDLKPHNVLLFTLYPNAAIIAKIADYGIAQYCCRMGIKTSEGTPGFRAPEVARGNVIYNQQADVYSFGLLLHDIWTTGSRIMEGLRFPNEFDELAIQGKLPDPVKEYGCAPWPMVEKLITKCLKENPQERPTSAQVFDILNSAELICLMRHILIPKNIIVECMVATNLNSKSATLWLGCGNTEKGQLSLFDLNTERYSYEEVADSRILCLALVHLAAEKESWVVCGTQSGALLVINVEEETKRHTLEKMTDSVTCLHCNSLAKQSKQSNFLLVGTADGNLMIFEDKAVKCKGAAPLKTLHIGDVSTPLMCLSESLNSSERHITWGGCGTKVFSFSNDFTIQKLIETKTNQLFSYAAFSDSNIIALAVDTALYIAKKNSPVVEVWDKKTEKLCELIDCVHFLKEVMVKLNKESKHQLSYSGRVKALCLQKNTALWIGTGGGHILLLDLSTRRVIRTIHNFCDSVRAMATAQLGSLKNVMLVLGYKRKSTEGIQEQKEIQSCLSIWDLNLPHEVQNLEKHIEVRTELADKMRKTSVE
Method: as §2, §3, §4, §5
Treatment: WT MEF, R1441C, VPS35N and G2019S mutants' cells were plated at equal density into 6-well plates in a final volume of 3 mL of complete growth medium/well. Degraders were reconstituted in DMSO and used at 1:1000 in cells i.e. 3 μl/3 ml. […]

T2 sequence (Q5S007 whole entry G2019S): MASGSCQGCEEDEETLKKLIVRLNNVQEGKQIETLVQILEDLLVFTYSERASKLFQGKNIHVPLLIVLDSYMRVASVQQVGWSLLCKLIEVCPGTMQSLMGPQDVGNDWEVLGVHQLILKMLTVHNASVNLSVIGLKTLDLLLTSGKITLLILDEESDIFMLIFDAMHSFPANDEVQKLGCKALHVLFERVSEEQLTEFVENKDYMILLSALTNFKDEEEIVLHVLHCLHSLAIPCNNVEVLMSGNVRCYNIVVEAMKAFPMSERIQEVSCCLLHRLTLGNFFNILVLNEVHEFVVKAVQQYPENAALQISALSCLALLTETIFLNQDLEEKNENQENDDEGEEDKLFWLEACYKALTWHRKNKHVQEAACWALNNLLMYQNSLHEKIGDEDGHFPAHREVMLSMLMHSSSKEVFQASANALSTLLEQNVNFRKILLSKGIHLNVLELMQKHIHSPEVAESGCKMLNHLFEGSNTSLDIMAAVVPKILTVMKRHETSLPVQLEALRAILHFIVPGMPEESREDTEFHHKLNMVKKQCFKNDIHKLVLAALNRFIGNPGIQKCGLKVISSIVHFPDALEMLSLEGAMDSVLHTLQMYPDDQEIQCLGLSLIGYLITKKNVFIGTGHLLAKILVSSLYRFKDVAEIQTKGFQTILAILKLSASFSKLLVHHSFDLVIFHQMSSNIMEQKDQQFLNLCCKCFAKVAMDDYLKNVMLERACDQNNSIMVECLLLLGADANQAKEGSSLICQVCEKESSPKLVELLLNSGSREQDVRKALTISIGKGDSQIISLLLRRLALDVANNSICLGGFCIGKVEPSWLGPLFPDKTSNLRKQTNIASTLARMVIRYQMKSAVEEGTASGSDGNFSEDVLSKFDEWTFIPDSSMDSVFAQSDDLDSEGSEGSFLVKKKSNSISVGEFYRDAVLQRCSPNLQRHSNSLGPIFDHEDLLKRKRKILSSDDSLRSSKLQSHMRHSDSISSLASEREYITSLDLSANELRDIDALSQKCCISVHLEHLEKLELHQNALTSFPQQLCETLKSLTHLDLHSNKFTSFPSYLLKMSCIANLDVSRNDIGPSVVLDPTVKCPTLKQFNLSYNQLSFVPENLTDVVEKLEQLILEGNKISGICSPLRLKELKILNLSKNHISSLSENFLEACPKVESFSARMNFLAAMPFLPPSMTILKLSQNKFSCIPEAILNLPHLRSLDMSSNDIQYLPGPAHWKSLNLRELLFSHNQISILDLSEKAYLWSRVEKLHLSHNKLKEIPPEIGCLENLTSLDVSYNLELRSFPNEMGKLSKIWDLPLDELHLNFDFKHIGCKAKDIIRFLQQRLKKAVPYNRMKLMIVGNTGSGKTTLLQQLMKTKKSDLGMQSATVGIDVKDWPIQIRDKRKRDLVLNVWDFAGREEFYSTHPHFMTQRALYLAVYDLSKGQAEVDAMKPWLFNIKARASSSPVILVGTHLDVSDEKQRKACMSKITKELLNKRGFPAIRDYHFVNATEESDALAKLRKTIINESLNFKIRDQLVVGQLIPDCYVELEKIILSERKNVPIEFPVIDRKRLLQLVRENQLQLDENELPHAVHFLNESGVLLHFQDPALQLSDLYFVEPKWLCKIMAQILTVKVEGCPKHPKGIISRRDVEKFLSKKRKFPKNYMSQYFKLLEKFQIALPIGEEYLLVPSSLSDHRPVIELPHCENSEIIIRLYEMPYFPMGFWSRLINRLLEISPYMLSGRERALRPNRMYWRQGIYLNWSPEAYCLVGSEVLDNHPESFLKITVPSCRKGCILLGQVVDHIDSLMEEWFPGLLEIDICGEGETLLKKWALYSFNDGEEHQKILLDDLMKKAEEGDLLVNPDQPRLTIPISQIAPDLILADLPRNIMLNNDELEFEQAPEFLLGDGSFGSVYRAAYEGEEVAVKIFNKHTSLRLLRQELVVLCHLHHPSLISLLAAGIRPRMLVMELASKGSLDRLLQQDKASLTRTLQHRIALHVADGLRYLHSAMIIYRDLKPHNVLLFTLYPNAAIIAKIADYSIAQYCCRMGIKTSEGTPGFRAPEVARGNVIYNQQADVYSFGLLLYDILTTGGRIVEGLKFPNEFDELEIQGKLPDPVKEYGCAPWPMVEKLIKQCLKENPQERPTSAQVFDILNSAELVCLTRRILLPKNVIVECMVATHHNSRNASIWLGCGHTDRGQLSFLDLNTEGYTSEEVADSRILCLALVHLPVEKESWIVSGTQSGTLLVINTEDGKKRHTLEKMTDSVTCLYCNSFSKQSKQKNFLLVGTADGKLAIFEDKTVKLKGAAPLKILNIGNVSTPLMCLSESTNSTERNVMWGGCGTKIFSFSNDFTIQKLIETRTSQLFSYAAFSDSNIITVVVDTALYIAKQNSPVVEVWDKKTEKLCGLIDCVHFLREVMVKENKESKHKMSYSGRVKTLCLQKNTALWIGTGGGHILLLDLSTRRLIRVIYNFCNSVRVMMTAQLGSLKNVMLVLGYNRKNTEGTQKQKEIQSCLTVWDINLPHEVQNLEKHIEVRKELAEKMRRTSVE
T1 sequence (Q5S007 whole entry): as the sequence (Q5S007 whole entry G2019S) above, with S2019G counted along it

Structure (SMILES) | IC50 (LRRK2 wt) [nM] | IC50 (LRRK2 G2019S) [nM] | degradation of LRRK2 (total level) (LRRK2) | inhibition of phosphorylation of S935 (LRRK2 pS935) | inhibition of phosphorylation of Rab10 (Rab10 (phospho T73)) | degradation of LRRK2 (C-terminus) [1] | level of LRRK2 (degradation) (LRRK2) | inhibition of pS935 (LRRK2 pS935; after 48 hours (FIG. 18)) | inhibition of pRAB10 (Rab10 (phospho T73); after 48 hours (FIG. 18))
CNc1nc(Nc2ccc(C(=O)N3CCN(C(=O)CCOCCOCCOCCOCCNc4cccc5c4C(=O)N(C4CCC(=O)NC4=O)C5=O)CC3)cc2OC)ncc1C(F)(F)F (stereo not shown) [Compound 1] | 4 | 2 | did not degrade | inhibited | inhibited |  |  |  | 
CNc1nc(Nc2ccc(C(=O)N3CCN(C(=O)CCOCCOCCNc4cccc5c4C(=O)N(C4CCC(=O)NC4=O)C5=O)CC3)cc2OC)ncc1C(F)(F)F (stereo not shown) [Compound 2] | 2 | 1 | did not degrade | inhibited | inhibited |  |  |  | 
CNc1nc(Nc2ccc(C(=O)N3CCN(C(=O)CCCCCCCCOc4cccc5c4C(=O)N(C4CCC(=O)NC4=O)C5=O)CC3)cc2OC)ncc1C(F)(F)F (stereo not shown) [Compound 3, 2-(2,6-dioxopiperidin-3-yl)-4-((9-(4-(3-methoxy-4-((4-(methylamino)-5-(trifluoromethyl)pyrimidin-2-yl)amino)benzoyl)piperazin-1-yl)-9-oxononyl)oxy)isoindoline-1,3-dione] | 2 | 1 | did not degrade | inhibited | inhibited | observed |  |  | 
CNc1nc(Nc2ccc(C(=O)N3CCN(CCOCCOCCOCCNc4cccc5c4C(=O)N(C4CCC(=O)NC4=O)C5=O)CC3)cc2OC)ncc1C(F)(F)F (stereo not shown) [Compound 5] |  |  | did not degrade | inhibited | inhibited |  |  |  | 
CC1(Oc2ccc3[nH]nc(-c4cc(N5CCN(C(=O)CCOCCOCCNc6cccc7c6C(=O)N(C6CCC(=O)NC6=O)C7=O)CC5)ncn4)c3c2)CC1 (stereo not shown) [Compound 8, 2-(2,6-dioxopiperidin-3-yl)-4-((2-(2-(3-(4-(6-(5-(1-methylcyclopropoxy)-1H-indazol-3-yl)pyrimidin-4-yl)piperazin-1-yl)-3-oxopropoxy)ethoxy)ethyl)amino)isoindoline-1,3-dione] | 1.24 | 1.13 | decreased | inhibited |  |  | degraded |  | 
CC1(Oc2ccc3[nH]nc(-c4cc(N5CCN(C(=O)CCOCCOCCOCCOCCNc6cccc7c6C(=O)N(C6CCC(=O)NC6=O)C7=O)CC5)ncn4)c3c2)CC1 (stereo not shown) [Compound 9] | 1.46 | 0.98 | decreased | inhibited |  |  |  |  | 
CC1(Oc2ccc3[nH]nc(-c4cc(N5CCN(C(=O)CCOCCNc6cccc7c6C(=O)N(C6CCC(=O)NC6=O)C7=O)CC5)ncn4)c3c2)CC1 (stereo not shown) [Compound 10, 2-(2,6-dioxopiperidin-3-yl)-4-((2-(3-(4-(6-(5-(1-methylcyclopropoxy)-1H-indazol-3-yl)pyrimidin-4-yl)piperazin-1-yl)-3-oxopropoxy)ethyl)amino)isoindoline-1,3-dione] | 1.59 | 1.08 | Less degradation | inhibited |  |  |  |  | 
CC1(Oc2ccc3[nH]nc(-c4cc(N5CCN(C(=O)CCOCCNc6cccc7c6C(=O)N(C6CCC(=O)NC6=O)C7)CC5)ncn4)c3c2)CC1 (stereo not shown) [Compound 11, 3-(7-((2-(3-(4-(6-(5-(1-methylcyclopropoxy)-1H-indazol-3-yl)pyrimidin-4-yl)piperazin-1-yl)-3-oxopropoxy)ethyl)amino)-1-oxoisoindolin-2-yl)piperidine-2,6-dione] | 2.5 | 1.47 | Some degradation | inhibits |  |  |  |  | 
CC1(Oc2ccc3[nH]nc(-c4cc(N5CCN(C(=O)CCOCCOCCNc6cccc7c6C(=O)N(C6CCC(=O)NC6=O)C7)CC5)ncn4)c3c2)CC1 (stereo not shown) [Compound 12, 3-(7-((2-(2-(3-(4-(6-(5-(1-methylcyclopropoxy)-1H-indazol-3-yl)pyrimidin-4-yl)piperazin-1-yl)-3-oxopropoxy)ethoxy)ethyl)amino)-1-oxoisoindolin-2-yl)piperidine-2,6-dione] | 2.58 | 2.24 | Minor degradation | inhibited |  |  |  |  | 
CC1(Oc2ccc3[nH]nc(-c4cc(N5CCN(C(=O)CCOCCOCCOCCOCCNc6cccc7c6C(=O)N(C6CCC(=O)NC6=O)C7)CC5)ncn4)c3c2)CC1 (stereo not shown) [Compound 13] | 3.14 | 3.16 | Some degradation | inhibited |  |  |  |  | 
Cc1ncsc1-c1ccc([C@@H](C)NC(=O)[C@H]2C[C@H](O)CN2C(=O)[C@H](NC(=O)CCOCCOCCOCCC(=O)N2CCN(c3cc(-c4n[nH]c5ccc(OC6(C)CC6)cc45)ncn3)CC2)C(C)(C)C)cc1 [Compound 14, (2R,4S)-1-((R)-2-(tert-butyl)-16-(4-(6-(5-(1-methylcyclopropoxy)-1H-indazol-3-yl)pyrimidin-4-yl)piperazin-1-yl)-4,16-dioxo-7,10,13-trioxa-3-azahexadecanoyl)-4-hydroxy-N—((R)-1-(4-(4-methylthiazol-5-yl)phenyl)ethyl)pyrrolidine-2-carboxamide] |  |  | No degradation | inhibited | inhibited |  |  |  | 
Cc1ncsc1-c1ccc([C@H](C)NC(=O)[C@@H]2C[C@@H](O)CN2C(=O)[C@@H](NC(=O)CCOCCOCCOCCOCCC(=O)N2CCN(c3cc(-c4n[nH]c5ccc(OC6(C)CC6)cc45)ncn3)CC2)C(C)(C)C)cc1 [Compound 15] |  |  | No degradation | inhibited | inhibited |  |  |  | 
CC1(Oc2ccc3[nH]nc(-c4cc(N5CCN(C(=O)CCOCCOCCNc6cccc7c6C(=O)N(C6CCCNC6=O)C7=O)CC5)ncn4)c3c2)CC1 (stereo not shown) [Compound 16] |  |  |  |  |  |  | did not reduce | potently inhibited | potently inhibited
CN1CCN(c2cc(-c3n[nH]c4ccc(OC5(C)CC5)cc34)ncn2)CC1 [MLi-2 analog, 5-(1-methylcyclopropyl)oxy-3-[6-(4-methylpiperazin-1-yl)pyrimidin-4-yl]-1H-indazole, reference compound] |  |  | did not decrease | inhibits |  |  |  |  | 

— patent US20210361774A1, “DEGRADERS OF WILD-TYPE AND MUTANT FORMS OF LRRK2” (DANA-FARBER CANCER INSTITUTE, INC., priority 2018, published 2021)
